The text below walks through data of patent US9346798B2, “Dihydrobenzoxazine and tetrahydroquinoxaline sodium channel inhibitors” (AMGEN INC., priority 2012, dated 2016).

As a reminder, the IC50 is the concentration needed to halve the response being measured. The term inhibition denotes how much of the control response was suppressed.

T1 sequence (Q15858 whole entry): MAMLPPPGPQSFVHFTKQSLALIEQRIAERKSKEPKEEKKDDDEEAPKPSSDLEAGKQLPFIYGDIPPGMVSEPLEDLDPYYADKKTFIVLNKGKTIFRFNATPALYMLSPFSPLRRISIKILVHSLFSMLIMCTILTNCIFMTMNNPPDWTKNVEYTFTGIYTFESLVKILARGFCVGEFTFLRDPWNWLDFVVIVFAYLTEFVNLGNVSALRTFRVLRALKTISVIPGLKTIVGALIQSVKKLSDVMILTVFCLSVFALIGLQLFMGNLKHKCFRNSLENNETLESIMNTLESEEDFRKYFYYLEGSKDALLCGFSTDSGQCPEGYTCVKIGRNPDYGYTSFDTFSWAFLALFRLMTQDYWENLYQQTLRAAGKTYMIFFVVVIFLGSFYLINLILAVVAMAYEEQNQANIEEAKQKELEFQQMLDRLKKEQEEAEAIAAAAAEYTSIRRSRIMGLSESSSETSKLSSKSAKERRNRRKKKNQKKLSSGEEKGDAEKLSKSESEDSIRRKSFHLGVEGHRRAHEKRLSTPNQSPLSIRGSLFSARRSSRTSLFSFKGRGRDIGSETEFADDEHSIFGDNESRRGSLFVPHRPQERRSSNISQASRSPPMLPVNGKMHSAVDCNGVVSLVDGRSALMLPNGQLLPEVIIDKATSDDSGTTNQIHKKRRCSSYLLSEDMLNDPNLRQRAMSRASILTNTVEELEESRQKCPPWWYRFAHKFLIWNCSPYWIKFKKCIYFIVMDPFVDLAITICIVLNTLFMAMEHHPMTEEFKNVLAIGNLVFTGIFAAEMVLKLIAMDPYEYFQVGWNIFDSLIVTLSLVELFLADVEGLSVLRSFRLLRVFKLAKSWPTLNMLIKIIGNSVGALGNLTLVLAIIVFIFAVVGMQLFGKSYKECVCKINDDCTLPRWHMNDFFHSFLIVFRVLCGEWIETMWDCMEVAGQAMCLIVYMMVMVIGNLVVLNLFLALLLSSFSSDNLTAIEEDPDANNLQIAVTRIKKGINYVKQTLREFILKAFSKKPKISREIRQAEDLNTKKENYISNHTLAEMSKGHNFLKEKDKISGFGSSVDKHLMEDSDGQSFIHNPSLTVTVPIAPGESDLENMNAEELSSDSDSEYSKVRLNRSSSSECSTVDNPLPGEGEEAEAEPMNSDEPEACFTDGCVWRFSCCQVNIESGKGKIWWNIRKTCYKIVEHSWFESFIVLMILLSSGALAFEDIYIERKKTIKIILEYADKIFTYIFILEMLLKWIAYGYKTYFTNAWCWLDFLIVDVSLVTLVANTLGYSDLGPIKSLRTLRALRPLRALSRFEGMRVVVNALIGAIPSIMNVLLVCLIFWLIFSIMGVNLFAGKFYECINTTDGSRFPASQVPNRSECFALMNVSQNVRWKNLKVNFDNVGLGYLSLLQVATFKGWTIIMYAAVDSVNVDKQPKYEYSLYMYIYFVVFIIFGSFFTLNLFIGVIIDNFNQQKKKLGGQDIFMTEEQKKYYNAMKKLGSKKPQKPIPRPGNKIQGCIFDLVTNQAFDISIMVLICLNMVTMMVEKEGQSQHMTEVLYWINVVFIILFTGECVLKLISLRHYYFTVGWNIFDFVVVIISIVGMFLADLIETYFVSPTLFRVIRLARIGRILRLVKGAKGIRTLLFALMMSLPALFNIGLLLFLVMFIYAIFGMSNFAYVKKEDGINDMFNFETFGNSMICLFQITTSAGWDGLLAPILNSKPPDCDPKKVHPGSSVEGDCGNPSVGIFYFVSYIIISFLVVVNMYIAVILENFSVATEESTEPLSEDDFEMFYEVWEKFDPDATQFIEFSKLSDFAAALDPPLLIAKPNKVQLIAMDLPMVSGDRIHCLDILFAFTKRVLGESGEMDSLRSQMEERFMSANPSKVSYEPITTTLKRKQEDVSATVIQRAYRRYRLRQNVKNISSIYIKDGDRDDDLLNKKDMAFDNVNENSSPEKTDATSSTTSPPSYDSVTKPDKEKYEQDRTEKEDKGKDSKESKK
Nav 1.5, sequence (Q14524 whole entry): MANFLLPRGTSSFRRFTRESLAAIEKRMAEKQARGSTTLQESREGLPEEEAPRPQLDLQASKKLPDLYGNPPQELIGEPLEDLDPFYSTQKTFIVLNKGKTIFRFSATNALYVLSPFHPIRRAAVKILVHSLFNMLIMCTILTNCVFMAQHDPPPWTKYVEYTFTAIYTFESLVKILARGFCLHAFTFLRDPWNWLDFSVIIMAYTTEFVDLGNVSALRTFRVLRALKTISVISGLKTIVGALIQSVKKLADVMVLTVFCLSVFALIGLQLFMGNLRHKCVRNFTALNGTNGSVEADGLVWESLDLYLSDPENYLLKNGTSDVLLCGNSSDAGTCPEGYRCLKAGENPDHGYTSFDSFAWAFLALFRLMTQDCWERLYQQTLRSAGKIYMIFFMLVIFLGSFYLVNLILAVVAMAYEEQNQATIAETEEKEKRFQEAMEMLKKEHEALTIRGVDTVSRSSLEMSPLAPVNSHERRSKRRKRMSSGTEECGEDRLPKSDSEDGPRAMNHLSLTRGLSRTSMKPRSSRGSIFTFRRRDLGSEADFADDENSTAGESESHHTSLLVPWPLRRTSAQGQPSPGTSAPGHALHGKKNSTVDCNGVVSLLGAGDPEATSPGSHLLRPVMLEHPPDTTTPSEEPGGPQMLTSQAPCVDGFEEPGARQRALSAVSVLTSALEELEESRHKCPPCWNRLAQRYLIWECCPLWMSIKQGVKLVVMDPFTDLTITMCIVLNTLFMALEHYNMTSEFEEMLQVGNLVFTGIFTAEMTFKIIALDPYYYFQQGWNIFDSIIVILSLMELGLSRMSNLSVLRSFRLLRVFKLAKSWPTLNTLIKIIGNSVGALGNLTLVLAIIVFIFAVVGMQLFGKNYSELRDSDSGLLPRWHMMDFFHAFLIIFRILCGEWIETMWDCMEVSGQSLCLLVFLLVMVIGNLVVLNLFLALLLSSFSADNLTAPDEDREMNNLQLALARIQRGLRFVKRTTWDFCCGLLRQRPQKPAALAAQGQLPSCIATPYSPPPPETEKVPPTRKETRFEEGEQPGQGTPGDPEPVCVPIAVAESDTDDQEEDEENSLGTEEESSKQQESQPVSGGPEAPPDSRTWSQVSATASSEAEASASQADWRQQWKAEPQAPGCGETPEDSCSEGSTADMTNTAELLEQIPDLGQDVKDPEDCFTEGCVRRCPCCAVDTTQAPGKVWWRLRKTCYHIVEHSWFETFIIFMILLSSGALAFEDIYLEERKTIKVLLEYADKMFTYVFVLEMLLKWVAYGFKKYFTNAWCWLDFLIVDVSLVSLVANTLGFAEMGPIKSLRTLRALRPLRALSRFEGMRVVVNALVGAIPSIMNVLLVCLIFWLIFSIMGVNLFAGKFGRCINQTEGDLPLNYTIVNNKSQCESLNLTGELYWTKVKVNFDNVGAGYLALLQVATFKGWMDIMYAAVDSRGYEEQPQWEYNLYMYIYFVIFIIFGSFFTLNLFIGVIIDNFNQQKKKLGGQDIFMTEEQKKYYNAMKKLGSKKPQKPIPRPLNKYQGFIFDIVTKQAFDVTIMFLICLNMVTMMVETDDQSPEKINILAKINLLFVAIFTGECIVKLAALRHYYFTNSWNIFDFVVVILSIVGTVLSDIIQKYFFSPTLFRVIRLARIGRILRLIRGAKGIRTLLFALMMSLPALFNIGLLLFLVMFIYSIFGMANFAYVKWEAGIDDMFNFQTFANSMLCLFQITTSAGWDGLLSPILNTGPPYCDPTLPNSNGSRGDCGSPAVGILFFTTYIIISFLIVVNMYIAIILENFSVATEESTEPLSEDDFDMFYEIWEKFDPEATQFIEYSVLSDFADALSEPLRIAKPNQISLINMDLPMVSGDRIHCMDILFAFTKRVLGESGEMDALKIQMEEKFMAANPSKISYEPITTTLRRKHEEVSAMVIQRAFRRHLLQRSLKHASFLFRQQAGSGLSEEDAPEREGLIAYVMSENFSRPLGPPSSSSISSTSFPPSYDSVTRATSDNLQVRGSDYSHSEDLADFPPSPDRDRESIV

The target of the first data set is T1, Nav 1.7 (Homo sapiens (Human), UniProt Q15858). In words: Nav 1.7 in vitro assay, IonWorks Quattro (IWQ) population patch-clamp. The format is cell-based. The settings on record: HEK 293 cells stably transfected with Nav 1.7; 26th pulse to -20 mV. As for the experimental part:
(§1) Nav 1.7 and Nav 1.5 In Vitro Assays
(§2) HEK 293 cells stably transfected with either Nav 1.7 or with Nav 1.5 were recorded in population patch-clamp mode with the IonWorks® Quattro automated electrophysiology system in accordance with the manufacturer's specifications (Molecular Devices, LLC, Sunnyvale, Calif.). Sodium channel currents were measured in response to a train of depolarizations that induced successively greater inactivation.
(§3) Cells were held at −110 mV for three seconds (Nav 1.7) or half a second (Nav 1.5) from a holding voltage of −15 mV, then put through a series of 26 pulses of 150 msec duration to −20 mV at a frequency of 5 Hz. Cells were then left unclamped for a period of 3 to 8 minutes while a single concentration of test compound was added. Cells were then reclamped and put through the same voltage protocol. Current at the end of the 26th pulse to −20 mV was subtracted from the peak current evoked by the 26th pulse to −20 mV to correct for leak current. Percent block was calculated for each concentration in duplicate, and IC50 curves were fitted to percent block as a function of concentration.
Background: In patch-clamp work, channel activity is measured electrically.
In turn, `CC(=O)N1CCN(c2ccc(C(F)(F)F)cc2Cl)c2ccc(S(=O)(=O)Nc3ncns3)cc21` [Example 20, 4-Acetyl-1-(2-Chloro-4-(Trifluoromethyl)Phenyl)-N-(1,2,4-Thiadiazol-5-Yl)-1,2,3,4-Tetrahydroquinoxaline-6-Sulfonamide] came in with an IC50 of 7.6 µM.

A further data set concerns the target Nav 1.5 (Homo sapiens (Human), UniProt Q14524). In words: Nav 1.5 in vitro assay, IonWorks Quattro (IWQ) population patch-clamp. It counts as cell-based. The conditions noted are these: HEK 293 cells stably transfected with Nav 1.5; 26th pulse to -20 mV. As for the experimental part: as §1, §2, §3
Molecule `CC(C)(C)OC(=O)N1CC=C(c2cc(C(F)(F)F)ccc2N2CCOc3cc(S(=O)(=O)Nc4ncns4)ccc32)CC1` [Example 6, Tert-Butyl 4-(2-(7-(N-(1,2,4-Thiadiazol-5-Yl)Sulfamoyl)-2H-Benzo[B][1,4]Oxazin-4(3H)-Yl)-5-(Trifluoromethyl)Phenyl)-5,6-Dihydropyridine-1(2H)-Carboxylate] had an IC50 of 2.29 µM.

In turn, `O=S(=O)(Nc1nccs1)c1ccc2c(c1)OCCN2c1ccc(C(F)(F)F)cc1C1=CCNCC1` [Example 38, 4-(2-(1,2,3,6-Tetrahydropyridin-4-Yl)-4-(Trifluoromethyl)Phenyl)-N-(Thiazol-2-Yl)-3,4-Dihydro-2H-Benzo[B][1,4]Oxazine-7-Sulfonamide 2,2,2-Trifluoroacetate] yielded an IC50 of 0.254 µM. `CN1CC=C(c2cc(C(F)(F)F)ccc2N2CCOc3cc(S(=O)(=O)Nc4ccncn4)ccc32)CC1` [Example 51, 4-(2-(1-Methyl-1,2,3,6-Tetrahydropyridin-4-Yl)-4-(Trifluoromethyl)Phenyl)-N-(Pyrimidin-4-Yl)-3,4-Dihydro-2H-Benzo[B][1,4]Oxazine-7-Sulfonamide] returned an IC50 of over 10 µM.

In turn, `O=S(=O)(Nc1nccs1)c1ccc2c(c1)OCCN2c1cccc2scnc12` [Example 72, 4-(Benzo[D]Thiazol-4-Yl)-N-(Thiazol-2-Yl)-3,4-Dihydro-2H-Benzo[B][1,4]Oxazine-7-Sulfonamide 2,2,2-Trifluoroacetate] displayed an IC50 of over 10 µM.

`COc1cccc(N2CCOc3cc(S(=O)(=O)Nc4nccs4)ccc32)c1` [Example 77, 4-(3-Methoxyphenyl)-N-(Thiazol-2-Yl)-3,4-Dihydro-2H-Benzo[B][1,4]Oxazine-7-Sulfonamide 2,2,2-Trifluoroacetate] had an IC50 of over 10 µM. Same read-out and setting: to `Cc1ccc(N2CCOc3cc(S(=O)(=O)Nc4nccs4)ccc32)cc1F` [Example 82, 4-(3-Fluoro-4-Methylphenyl)-N-(Thiazol-2-Yl)-3,4-Dihydro-2H-Benzo[B][1,4]Oxazine-7-Sulfonamide 2,2,2-Trifluoroacetate] belongs over 10 µM.

In the case of `O=S(=O)(Nc1nccs1)c1ccc2c(c1)OCCN2c1cc(F)ccc1F` [Example 83, 4-(2,5-Difluorophenyl)-N-(Thiazol-2-Yl)-3,4-Dihydro-2H-Benzo[B][1,4]Oxazine-7-Sulfonamide 2,2,2-Trifluoroacetate], the IC50 was over 10 µM.

`O=S(=O)(Nc1nccs1)c1ccc2c(c1)OCCN2c1ncc(Cl)cc1Cl` [Example 121, 4-(3,5-Dichloropyridin-2-yl)-N-(thiazol-2-yl)-3,4-dihydro-2H-benzo[b][1,4]oxazine-7-sulfonamide]: the IC50 is over 10 µM. On the same count and under the same terms, to `COc1ccc(N2CCOc3cc(S(=O)(=O)Nc4nccs4)ccc32)c(C#N)c1` [Example 153, 4-(2-Cyano-4-Methoxyphenyl)-N-(Thiazol-2-Yl)-3,4-Dihydro-2H-Benzo[B][1,4]Oxazine-7-Sulfonamide 2,2,2-Trifluoroacetate] belongs over 10 µM. Consider `O=S(=O)(Nc1nccs1)c1ccc2c(c1)OCCN2c1ccc(-n2ccnc2)cc1` [Example 154, 4-(4-(1H-Imidazol-1-Yl)Phenyl)-N-(Thiazol-2-Yl)-3,4-Dihydro-2H-Benzo[B][1,4]Oxazine-7-Sulfonamide 2,2,2-Trifluoroacetate], for which the IC50 was over 10 µM. Same read-out and setting: to `O=S(=O)(Nc1nccs1)c1ccc2c(c1)OCCN2c1ccccc1C(F)(F)F` [Example 157, N-(Thiazol-2-Yl)-4-(2-(Trifluoromethyl)Phenyl)-3,4-Dihydro-2H-Benzo[B][1,4]Oxazine-7-Sulfonamide 2,2,2-Trifluoroacetate] belongs over 10 µM; to `O=C1CCCc2ccc(N3CCOc4cc(S(=O)(=O)Nc5nccs5)ccc43)cc21` [Example 160, 4-(8-Oxo-5,6,7,8-Tetrahydronaphthalen-2-Yl)-N-(Thiazol-2-Yl)-3,4-Dihydro-2H-Benzo[B][1,4]Oxazine-7-Sulfonamide 2,2,2-Trifluoroacetate], over 10 µM. On the same count and under the same terms, next, `Cc1cc(N2CCOc3cc(S(=O)(=O)Nc4nccs4)ccc32)cc(C)c1N(C)C` [Example 161, 4-(4-(Dimethylamino)-3,5-Dimethylphenyl)-N-(Thiazol-2-Yl)-3,4-Dihydro-2H-Benzo[B][1,4]Oxazine-7-Sulfonamide 2,2,2-Trifluoroacetate]: 3.49 µM.

For `CCOc1cccc(N2CCOc3cc(S(=O)(=O)Nc4nccs4)ccc32)c1` [Example 162, 4-(3-Ethoxyphenyl)-N-(Thiazol-2-Yl)-3,4-Dihydro-2H-Benzo[B][1,4]Oxazine-7-Sulfonamide 2,2,2-Trifluoroacetate], the IC50 was over 10 µM. For the molecule `Cc1ccc(N2CCOc3cc(S(=O)(=O)Nc4nccs4)ccc32)cc1Cl` [Example 163, 4-(3-Chloro-4-Methylphenyl)-N-(Thiazol-2-Yl)-3,4-Dihydro-2H-Benzo[B][1,4]Oxazine-7-Sulfonamide 2,2,2-Trifluoroacetate], the IC50 stood at 3.14 µM.

Regarding `N#Cc1ccc(F)c(N2CCOc3cc(S(=O)(=O)Nc4nccs4)ccc32)c1` [Example 164, 4-(5-Cyano-2-Fluorophenyl)-N-(Thiazol-2-Yl)-3,4-Dihydro-2H-Benzo[B][1,4]Oxazine-7-Sulfonamide 2,2,2-Trifluoroacetate], the IC50 is over 10 µM. The same measure, in the same setting: next, `Cc1c(Cl)cccc1N1CCOc2cc(S(=O)(=O)Nc3nccs3)ccc21` [Example 169, 4-(3-Chloro-2-Methylphenyl)-N-(Thiazol-2-Yl)-3,4-Dihydro-2H-Benzo[B][1,4]Oxazine-7-Sulfonamide 2,2,2-Trifluoroacetate]: over 10 µM. Same read-out and setting: to `O=S(=O)(Nc1nccs1)c1ccc2c(c1)OCCN2c1cccc(Cl)c1Cl` [Example 171, 4-(2,3-Dichlorophenyl)-N-(Thiazol-2-Yl)-3,4-Dihydro-2H-Benzo[B][1,4]Oxazine-7-Sulfonamide 2,2,2-Trifluoroacetate] belongs 6.44 µM. The same measure, in the same setting: next, `O=S(=O)(Nc1nccs1)c1ccc2c(c1)OCCN2c1ccc(F)cc1F` [Example 176, 4-(2,4-Difluorophenyl)-N-(Thiazol-2-Yl)-3,4-Dihydro-2H-Benzo[B][1,4]Oxazine-7-Sulfonamide 2,2,2-Trifluoroacetate]: over 10 µM; `N#Cc1ccc(F)cc1N1CCOc2cc(S(=O)(=O)Nc3nccs3)ccc21` [Example 188, 4-(2-Cyano-5-Fluorophenyl)-N-(Thiazol-2-Yl)-3,4-Dihydro-2H-Benzo[B][1,4]Oxazine-7-Sulfonamide]: 3.62 µM.

The target of a further data set is T1, Nav 1.7. Put plainly: Nav 1.7 in vitro PX assay, PatchXpress whole cell voltage clamp. The settings on record: HEK293; values marked *; 4.9 μM; HEK 293 cells stably transfected with human Nav1.7; read-out: Nav 1.7 PX percent inhibition at 4.9 μM. The format is cell-based. The procedure:
Nav 1.7 In Vitro PX Assay
HEK 293 cells stably transfected with human Nav1.7 were recorded in whole cell voltage clamp mode with the PatchXpress automated electrophysiology system (Molecular Devices, LLC, Sunnyvale, Calif.). Compound effects were measured on a partially inactivated state of the sodium channel. Cells were clamped to a holding potential yielding 20 to 50% inactivation. To elicit sodium current, channels were activated by pulsing to −10 mV for 20 msec. This voltage protocol was repeated at a rate of 0.1 Hz throughout the experiment. A single concentration of test compound was applied to cells for a duration of 3 minutes. Peak sodium current was measured at the end of the compound addition period to determine percent inhibition. Three to five cells were tested per concentration, and IC50 curves were fitted to percent inhibition as a function of concentration.
In the case of `CC(=O)N1CCN(c2ccc(C(F)(F)F)cc2Cl)c2ccc(S(=O)(=O)Nc3ncns3)cc21` [Example 20, 4-Acetyl-1-(2-Chloro-4-(Trifluoromethyl)Phenyl)-N-(1,2,4-Thiadiazol-5-Yl)-1,2,3,4-Tetrahydroquinoxaline-6-Sulfonamide], the inhibition at 4.9 µM is 33.2%.

The same data set, now with this note: HEK 293 cells stably transfected with human Nav1.7; partially inactivated state (20 to 50% inactivation).
Molecule `CC(C)(C#N)Oc1ccccc1N1CCOc2cc(S(=O)(=O)Nc3nccs3)ccc21` [Example 261, 4-(2-((2-cyanopropan-2-yl)oxy)phenyl)-N-(thiazol-2-yl)-3,4-dihydro-2H-benzo[b][1,4]oxazine-7-sulfonamide] came in with an IC50 of 3.6 µM. Still for that read-out and setting: next, `O=C1COc2cc(S(=O)(=O)Nc3nccs3)ccc2N1c1ccc(C(F)(F)F)cc1CO` [Example 262, 4-(2-(hydroxymethyl)-4-(trifluoromethyl)phenyl)-3-oxo-N-(thiazol-2-yl)-3,4-dihydro-2H-benzo[b][1,4]oxazine-7-sulfonamide]: 3.35 µM; `COc1cc(C(F)(F)F)ccc1N1C(=O)[C@H](C)Oc2cc(S(=O)(=O)Nc3nccs3)ccc21` [Example 264, (S)-4-(2-methoxy-4-(trifluoromethyl)phenyl)-2-methyl-3-oxo-N-(thiazol-2-yl)-3,4-dihydro-2H-benzo[b][1,4]oxazine-7-sulfonamide]: 0.596 µM.

Molecule `COc1cc(C(F)(F)F)ccc1N1C(=O)[C@@H](C)Oc2cc(S(=O)(=O)Nc3nccs3)ccc21` [Example 265, (R)-4-(2-Methoxy-4-(Trifluoromethyl)Phenyl)-2-Methyl-3-Oxo-N-(Thiazol-2-Yl)-3,4-Dihydro-2H-Benzo[B][1,4]Oxazine-7-Sulfonamide] returned a concentration for half-maximal inhibition (IC50) of 0.728 µM. The same measure, in the same setting: next, `COc1cc(C(F)(F)F)ccc1N1C(=O)C(C)(C)Oc2cc(S(=O)(=O)Nc3nccs3)ccc21` [Example 266, 4-(2-Methoxy-4-(Trifluoromethyl)Phenyl)-2,2-Dimethyl-3-Oxo-N-(Thiazol-2-Yl)-3,4-Dihydro-2H-Benzo[B][1,4]Oxazine-7-Sulfonamide]: 5.62 µM.
